This is an account of results in patent publication US20020119136A1, “Antimicrobial peroxidase compositions” (Novozymes A/S, priority 1996, published 2002).

In one assay the test system is P. fluorescens. The conditions noted are these: rCIP 3 POXU/ml, enhancing agent 5 mM, 15 min, pH 6.0, 40 C; for bactericidal activity of rCIP with the enhancing agent: glucose oxidase/glucose or 5 mM H2O2, 10^4 cfu/ml.
Assay [1] deals with Pseudomonas aeruginosa ATCC 10146. Put plainly: Antibacterial activity of rCIP and KI against P. aeruginosa (Malthus, 2^3 factorial design). Type of assay: cell-based. The settings on record: components present at rCIP 0.5 POXU/ml, H2O2 0.5 mM, KI 0.5 mM; 15 min, 40 C, pH 6.0; approx 10^7 cfu/ml; untreated 1.7*10^7. As for the experimental part: (§1) The antibacterial activity of rCIP was tested in phosphate buffer (pH 6.0) against Pseudomonas aeruginosa ATCC 10146 and Staphylococcus aureus ATCC 25923 with potassium iodide as electron donor, and hydrogen peroxide was added as electron acceptor. The cells (approximately 10^7 cfu/ml) were incubated with enzyme for 15 min at 40?C., and the experiment was carried out using a 2^3 factorial design reproduced two times. The bactericidal activity was determined by incubation in Malthus.

The test system of assay [2] is Staphylococcus aureus ATCC 25923. Put plainly: Antibacterial activity of rCIP and KI against S. aureus (Malthus, 2^3 factorial design). Type of assay: cell-based. The conditions noted are these: components present at rCIP 0.5 POXU/ml, H2O2 0.5 mM, KI 0.5 mM; 15 min, 40 C, pH 6.0; untreated 2.9*10^8. The protocol:
as §1

Procedure for P. fluorescens: In order to avoid interference with substrate components, the experiment was carried out in a buffer instead of in a growth substrate.
The bactericidal activity was determined by plate counting and by incubation in Malthus. The detection times measured by the Malthus instrument were converted to cfu/ml by a standard curve.
Indirect Malthus measurements were used when enumerating total survival cells (Malthus Flexi M2060, Malthus Instrument Limited). 3 ml of growth medium was transferred to the outer chamber of the indirect Malthus cells, and 0.5 ml of sterile KOH (0.1 M) was transferred to the inner chamber. The cell suspensions were after enzyme treatment transferred to the outer chamber of the Malthus cell. As cells are growing in the outer chamber they produce CO2 which will dissolve in the KOH in the inner chamber and thereby change the conductance of the KOH. The amount of CO2 formed by the respiring cells surviving the enzyme treatment was used for estimating the number of viable cells. When the conductance change is measurable by the Malthus, a detection time (dt) will be recorded. The dt's were converted to colony counts by use of a calibration curve relating cfu/ml to dt (FIG. 1).

In the case of `N#C[S-].[Na+]` [NaSCN, sodium thiocyanate], the “bactericidal activity of rCIP with the enhancing agent” value (shortened to “bactericidal activity of rCIP”) with P. fluorescens is given as “statistical significant bactericidal activity”.
For the molecule `[I-].[K+]` [KI, potassium iodide], the survivors is listed as 2.1*10^7 cfu/ml in assay [1] and 2.0*10^8 cfu/ml in assay [2]. Also, the bactericidal activity with P. fluorescens (H2O2 source, by plate counts and Malthus) stood at 100%. For the same molecule, the “bactericidal activity of rCIP” value in the assay on P. fluorescens is “statistical significant bactericidal activity”.
Regarding `O=C(O)CCN1c2ccccc2Sc2ccccc21` [PPT, 10-phenothiazine propionic acid], the “bactericidal activity of rCIP” value in the assay with P. fluorescens is given as “slight bactericidal activity”.
In the case of `OO` [H2O2, hydrogen peroxide], the survivors in assay [1] was 1.2*10^7 cfu/ml; in assay [2], 1.3*10^8 cfu/ml.

B1: rCIP: Coprinus cinereus, IFO 8371, recombinant peroxidase (rCIP) available from Novo Nordisk A/S (protein, UniProt P28314 21-363, looked up)
Peroxidase: QGPGGGGSVTCPGGQSTSNSQCCVWFDVLDDLQTNFYQGSKCESPVRKILRIVFHDAIGFSPALTAAGQFGGGGADGSIIAHSNIELAFPANGGLTDTVEALRAVGINHGVSFGDLIQFATAVGMSNCPGSPRLEFLTGRSNSSQPSPPSLIPGPGNTVTAILDRMGDAGFSPDEVVDLLAAHSLASQEGLNSAIFRSPLDSTPQVFDTQFYIETLLKGTTQPGPSLGFAEELSPFPGEFRMRSDALLARDSRTACRWQSMTSSNEVMGQRYRAAMAKMSVLGFDRNALTDCSDVIPSAVSNNAAPVIPGGLTVDDIEVSCPSEPFPEIATASGPLPSLAPAP
As for B1, the values for the survivors in assay [1] and in assay [2] were 2.6*10^7 cfu/ml and 1.6*10^8 cfu/ml, respectively.
